The source of these data is PubChem BioAssay AID256 (DTP/NCI, 2004).

Each structure is given as a SMILES string. “And” between values parts separate entries of the source, which are not always exact repeats. Equal values may be shown once. Inconclusive results and toxic doses are left out.

This experiment concerns CD2F1 mice, L1210 leukemia ip, survival T/C. The experiment can be described thus: NCI In Vivo Anticancer Drug Screen. Data for tumor model L1210 Leukemia (intraperitoneal) in CD2F1 (CDF1) mice. Conditions: higher = longer survival. The gist of the method:
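Antitumor effect is scored in animals hosting a serially transplanted tumor. Values compare compound-dosed animals against vehicle-only controls as a simple quotient.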

Setting [1] is: endpoint: mean survival time, dose: 100.0 mg/kg/injection, schedule: Q04DX003 (ip), vehicle: saline with Tween-80.
Setting [2] is: endpoint: mean survival time, dose: 200.0 mg/kg/injection, schedule: Q04DX003 (ip), vehicle: saline with Tween-80.
[3] abbreviates: endpoint: mean survival time, dose: 400.0 mg/kg/injection, schedule: Q04DX003 (ip), vehicle: saline with Tween-80.
Where [4] appears, read: endpoint: mean survival time, dose: 100.0 mg/kg/injection, schedule: Q01DX009 (ip), vehicle: saline with Tween-80.
[5] abbreviates: endpoint: mean survival time, dose: 200.0 mg/kg/injection, schedule: Q01DX009 (ip), vehicle: saline with Tween-80.
The mark [6] stands for this setting: endpoint: mean survival time, dose: 400.0 mg/kg/injection, schedule: Q01DX009 (ip), vehicle: saline with Tween-80.
Setting [7] is: endpoint: mean survival time, dose: 25.0 mg/kg/injection, schedule: Q01DX009 (ip), vehicle: saline with Tween-80.
The mark [8] stands for this setting: endpoint: mean survival time, dose: 100.0 mg/kg/injection, schedule: Q01DX009 (ip), vehicle: Klucel (hydroxypropylcellulose) (HPC).
Setting [9] is: endpoint: mean survival time, dose: 200.0 mg/kg/injection, schedule: Q01DX009 (ip), vehicle: Klucel (hydroxypropylcellulose) (HPC).

`CCC(C)NC(=O)C1C2CCC(C2)C1C(=O)NC(C)CC` (stereo not given): the T/C reads like this: under setting [1], 98 % of control; under setting [2], 98 % of control; under setting [3], 102 % of control.

As to `CC(=O)Nc1nnc(-c2ccc([N+](=O)[O-])o2)s1`, the T/C is, setting by setting: (endpoint: mean survival time, dose: 75.0 mg/kg/injection, schedule: Q04DX003 (ip), vehicle: saline) 97 % of control; (endpoint: mean survival time, dose: 150.0 mg/kg/injection, schedule: Q04DX003 (ip), vehicle: saline) 100 % of control; (endpoint: mean survival time, dose: 300.0 mg/kg/injection, schedule: Q04DX003 (ip), vehicle: saline) 97 % of control.

`CC(C)(C)c1ccc(C(=O)N2CCOC23CCCCC3)cc1`: the T/C is 101 % of control and 104 % of control (endpoint: median survival time, dose: 50.0 mg/kg/injection, schedule: Q01DX005 (ip), vehicle: saline with Tween-80); 96 % of control and 104 % of control (endpoint: median survival time, dose: 100.0 mg/kg/injection, schedule: Q01DX005 (ip), vehicle: saline with Tween-80); 98 % of control and 101 % of control (endpoint: median survival time, dose: 200.0 mg/kg/injection, schedule: Q01DX005 (ip), vehicle: saline with Tween-80); 100 % of control (endpoint: median survival time, dose: 400.0 mg/kg/injection, schedule: Q01DX005 (ip), vehicle: saline with Tween-80); 96 % of control and 101 % of control (endpoint: median survival time, dose: 800.0 mg/kg/injection, schedule: Q01DX005 (ip), vehicle: saline with Tween-80).

`c1ccc2c(c1)OC1(CCCCC1)O2`: the T/C runs as follows: under setting [1], 100 % of control; under setting [2], 103 % of control; under setting [3], 102 % of control.

Consider `CCc1cccc(OS(=O)(=O)c2cccc([N+](=O)[O-])c2)c1`, for which the T/C runs as follows: under setting [4], 98 % of control; under setting [1], 103 % of control; under setting [5], 102 % of control; under setting [2], 103 % of control; under setting [6], 93 % of control; under setting [3], 101 % of control.

As to `Nc1c(Cl)c(Cl)nc(C(=O)O)c1Cl`, the T/C was 98 % of control (endpoint: mean survival time, dose: 25.0 mg/kg/injection, schedule: Q01DX009 (ip), vehicle: Klucel (hydroxypropylcellulose) (HPC)); 100 % of control under setting [7]; 98 % of control (endpoint: mean survival time, dose: 50.0 mg/kg/injection, schedule: Q01DX009 (ip), vehicle: Klucel (hydroxypropylcellulose) (HPC)); 94 % of control (endpoint: mean survival time, dose: 50.0 mg/kg/injection, schedule: Q01DX009 (ip), vehicle: saline with Tween-80); 97 % of control (endpoint: mean survival time, dose: 50.0 mg/kg/injection, schedule: Q01DX009 (ip), vehicle: saline); 90 % of control under setting [8]. Besides, the T/C is, setting by setting: under setting [4], 97 % of control; (endpoint: mean survival time, dose: 100.0 mg/kg/injection, schedule: Q01DX009 (ip), vehicle: saline) 97 % of control; under setting [9], 100 % of control; under setting [5], 97 % of control; (endpoint: mean survival time, dose: 200.0 mg/kg/injection, schedule: Q01DX009 (ip), vehicle: saline) 101 % of control; under setting [6], 101 % of control.

Regarding `CC1(C)OC2C(CO)OC(n3nc(SCc4ccccc4)c(=S)[nH]c3=O)C2O1` (stereo not given), the T/C reads like this: (endpoint: median survival time, dose: 12.5 mg/kg/injection, schedule: Q01DX005 (ip), vehicle: distilled water + Tween-80) 96 % of control; (endpoint: median survival time, dose: 25.0 mg/kg/injection, schedule: Q01DX005 (ip), vehicle: distilled water + Tween-80) 103 % of control; (endpoint: median survival time, dose: 50.0 mg/kg/injection, schedule: Q01DX005 (ip), vehicle: distilled water + Tween-80) 96 % of control; (endpoint: median survival time, dose: 100.0 mg/kg/injection, schedule: Q01DX005 (ip), vehicle: distilled water + Tween-80) 96 % of control; (endpoint: median survival time, dose: 200.0 mg/kg/injection, schedule: Q01DX005 (ip), vehicle: distilled water + Tween-80) 95 % of control.

In the case of `O=C1C(=O)C(Cl)=C(Cl)C(Cl)=C1Cl`, the T/C was 96 % of control (endpoint: mean survival time, dose: 12.5 mg/kg/injection, schedule: Q01DX009 (ip), vehicle: saline with Tween-80); 93 % of control (endpoint: mean survival time, dose: 12.5 mg/kg/injection, schedule: Q04DX003 (ip), vehicle: saline with Tween-80); 92 % of control under setting [7]; 104 % of control (endpoint: mean survival time, dose: 25.0 mg/kg/injection, schedule: Q04DX003 (ip), vehicle: saline with Tween-80); 104 % of control (endpoint: mean survival time, dose: 50.0 mg/kg/injection, schedule: Q04DX003 (ip), vehicle: saline with Tween-80).

For `COc1ccc(-n2c(C)nc3c(cnn3C3OC(CO)C(O)C3O)c2=O)cc1` (stereo not given), the T/C reads like this: (endpoint: median survival time, dose: 12.5 mg/kg/injection, schedule: Q01DX005 (ip), vehicle: saline) 103 % of control; (endpoint: median survival time, dose: 25.0 mg/kg/injection, schedule: Q01DX005 (ip), vehicle: saline) 102 % of control; (endpoint: median survival time, dose: 50.0 mg/kg/injection, schedule: Q01DX005 (ip), vehicle: saline) 105 % of control; (endpoint: median survival time, dose: 100.0 mg/kg/injection, schedule: Q01DX005 (ip), vehicle: saline) 111 % of control; (endpoint: median survival time, dose: 200.0 mg/kg/injection, schedule: Q01DX005 (ip), vehicle: saline) 103 % of control.

In the case of `OC1(c2ccccc2)c2cc(-c3ccccc3)c(-c3ccccc3)cc2C(c2ccccc2)(c2ccccc2)C1(O)c1ccccc1` (stereo not given), the T/C is, setting by setting: (endpoint: mean survival time, dose: 50.0 mg/kg/injection, schedule: Q01DX001 (ip), vehicle: saline with Tween-80) 96 % of control; (endpoint: mean survival time, dose: 100.0 mg/kg/injection, schedule: Q01DX001 (ip), vehicle: saline with Tween-80) 96 % of control; (endpoint: mean survival time, dose: 200.0 mg/kg/injection, schedule: Q01DX001 (ip), vehicle: saline with Tween-80) 96 % of control.

For `Cc1c(O)c2c(c(O)c1Cc1ccc(CN)cc1)C(=O)c1ccccc1C2=O`, the T/C reads like this: (endpoint: mean survival time, dose: 1.56 mg/kg/injection, schedule: Q01DX009 (ip), vehicle: water) 103 % of control; (endpoint: mean survival time, dose: 3.13 mg/kg/injection, schedule: Q01DX009 (ip), vehicle: water) 101 % of control; (endpoint: mean survival time, dose: 6.25 mg/kg/injection, schedule: Q01DX009 (ip), vehicle: water) 95 % of control; (endpoint: mean survival time, dose: 12.5 mg/kg/injection, schedule: Q01DX009 (ip), vehicle: water) 103 % of control; (endpoint: mean survival time, dose: 25.0 mg/kg/injection, schedule: Q01DX009 (ip), vehicle: water) 87 % of control.

Regarding `CCCCCCCCCC(O)CCCCCC` (stereo not given), the T/C reads like this: (endpoint: mean survival time, dose: 200.0 mg/kg/injection, schedule: Q04DX003 (ip), vehicle: other) 108 % of control; (endpoint: mean survival time, dose: 400.0 mg/kg/injection, schedule: Q04DX003 (ip), vehicle: other) 96 % of control.

On to `ClCCCN1CCCCC1CCl` (stereo not given), for which the T/C was 104 % of control (endpoint: mean survival time, dose: 3.12 mg/kg/injection, schedule: Q04DX003 (ip), vehicle: saline); 113 % of control (endpoint: mean survival time, dose: 6.25 mg/kg/injection, schedule: Q04DX003 (ip), vehicle: saline); 173 % of control (endpoint: mean survival time, dose: 25.0 mg/kg/injection, schedule: Q04DX003 (ip), vehicle: saline).

In the case of `C(=N/N=C(\C(=N\N=C\c1ccc2c(c1)CCC2)c1ccccc1)c1ccccc1)\c1ccc2c(c1)CCC2`, the T/C under setting [1] is 96 % of control, the T/C under setting [2] was 89 % of control and the T/C under setting [3] is 87 % of control.

As to `O=c1c2cc([N+](=O)[O-])cc3c2-c2c4c(cc([N+](=O)[O-])cc14)c(O)c1cc([N+](=O)[O-])cc(c3=O)c21`, the T/C under setting [4] was 103 % of control, the T/C under setting [5] was 117 % of control and the T/C under setting [6] was 113 % of control.

On to `O=c1cc(C(F)(F)F)[nH]c2ccc(F)cc12`, for which the T/C was 101 % of control (endpoint: mean survival time, dose: 5.0 mg/kg/injection, schedule: Q01DX009 (ip), vehicle: saline with Tween-80); 100 % of control (endpoint: mean survival time, dose: 10.0 mg/kg/injection, schedule: Q01DX009 (ip), vehicle: saline with Tween-80); 96 % of control (endpoint: mean survival time, dose: 20.0 mg/kg/injection, schedule: Q01DX009 (ip), vehicle: saline with Tween-80).

With `COc1ccc2ccccc2c1-c1c(O)ccc2ccccc12`, the T/C (endpoint: mean survival time, dose: 12.5 mg/kg/injection, schedule: Q01DX009 (ip), vehicle: other) is 101 % of control; the T/C (endpoint: mean survival time, dose: 25.0 mg/kg/injection, schedule: Q01DX009 (ip), vehicle: other) was 97 % of control; the T/C (endpoint: mean survival time, dose: 50.0 mg/kg/injection, schedule: Q01DX009 (ip), vehicle: other) is 91 % of control.

Regarding `Cc1ccc(NC(=O)Nc2ccc(Nc3ccccc3)cc2)c([N+](=O)[O-])c1`, the T/C was 89 % of control under setting [8]; 92 % of control under setting [9]; 89 % of control (endpoint: mean survival time, dose: 400.0 mg/kg/injection, schedule: Q01DX009 (ip), vehicle: Klucel (hydroxypropylcellulose) (HPC)).
